Reference: US20050049305A1, “Use of L-carnitine in the prevention and treatment of hearing loss” (priority 2002, published 2005)
Like-named read-outs stand apart in the source and are kept apart here. Marks after values point to notes of the source that are not given here.

Key:
[1] = Coleman et al. 2001; cited from earlier work
[2] = tested on: outer hair cells (OHCs) of organ of Corti; type: in vivo
Protocol: Pregnant guinea pigs were divided in three groups of 4 each. […] Those from group #2 also received a supplementary dose of LCAR in their drinking water (1 mg/ml ad libitum˜100 mg/kg/day) during the second half of the pregnancy and the immediate postnatal period. Guinea pigs from group #3 (4 mothers & 10 newborns), the control group, were injected with saline solution. Two weeks after delivery, all guinea pigs (mothers and newborns) were anesthetized by intraperitoneal injections of ketamine hydrochloride (60 mg/kg) and xylazine hydrochloride (5 mg/kg), and their auditory brainstem responses (ABR) were measured. They were then euthanized with CO2, and potential cochlear damage was evaluated by confocal microscopy.
The ABR results described in FIG. 1 were independently corroborated by confocal microscopy of the organ of Corti in mothers and newborns. […] The results of FIG. 2 are quantified in Table 1 and FIG. 3.

[3] = tested on: guinea pigs (mothers and newborns); assay: Cisplatin-induced sensorineural hearing loss, auditory brainstem response (ABR); type: in vivo, guinea pig; settings: two weeks after delivery, cisplatin 4 mg/kg i.p. once a day for 2 days, LCAR 1 mg/ml in drinking water, mean ±S.E.M.
HEI-OC1 cells [4] = assay: Cisplatin-induced apoptosis, DNA laddering and TUNEL; type: cell-based, mouse
Text: The HEI-OC1 cell line was cloned from cochlear half-turn explants from of an Immortomouse™. […] They are polygonal squamous cells with a dense perinuclear region containing a dense accumulation of multivesicular structures. These multivesicular structures were also observed in the rest of the cytoplasm, although at a lower density. HEI-OC1 cells co-express markers specific for both sensory and supporting cells. Expression of Math-1 and myosin VIIa by these cells indicate that HEI-OC1 cells are indeed sensory hair cell precursors.
Apoptosis was confirmed using TUNEL (ApoAlert DNA Fragmentation Assay—Clontech, Palo Alto, Calif.).

HEI-OC1 cells [5] = assay: Caspase-8 and caspase-9 assays in cisplatin-treated cells; type: cell-based, mouse
[6] = tested on: outer hair cells (OHCs) and stereocilia bundles; assay: Gentamicin-induced cochlear damage, confocal and scanning electron microscopy; type: in vivo, guinea pig
Protocol: (§1) Guinea pigs were used to evaluate the impact of prenatal LCAR supplementation on stress- and gentamicin-induced mortality in newborns because this animal model closely resembles perinatal human physiology. Pregnant guinea pigs (n=25) were divided in five groups. […] In group #2, stress was induced by intraperitoneal injections of normal saline (once daily from days 51 to 57 of gestation). Guinea pigs in group #3 were injected with gentamicin (100 mg/kg once daily from days 51 to 57 of gestation). Finally, groups #4 and #5 were injected with gentamicin as described for group #3, but received LCAR supplementation in their water supply (1 mg/ml˜100 mg/kg/day) starting either 2 weeks prior (Group #4) or simultaneously with gentamicin (Group #5). Newborn mortality was defined as either stillborn or death within the first 48 hrs of life.
Confocal and electron microscopy studies indicate that gentamicin induces both sensory cell death and stereocilia disruption in mothers and newborn guinea pigs. […] Whereas in Control animals the three rows of OHCs look generally intact (FIG. 6B), cochleas from guinea pigs treated with gentamicin show “scars” where supporting cells replaced dead OHCs (FIG. 6C). In addition, stereocilia bundles look completely disorganized, with significant structural changes and even “giant” stereocilia (FIG. 6D). […]

newborn guinea pigs [7] = assay: Gentamicin-induced neonatal mortality; type: in vivo, guinea pig
Protocol: as §1

[8] = tested on: guinea pigs (mothers and newborns); assay: Gentamicin-induced sensorineural hearing loss, ABR; type: in vivo
Protocol: Guinea pigs were used to evaluate the impact of prenatal LCAR supplementation on stress- and gentamicin-induced mortality in newborns because this animal model closely resembles perinatal human physiology. Pregnant guinea pigs (n=25) were divided in five groups. […] In group #2, stress was induced by intraperitoneal injections of normal saline (once daily from days 51 to 57 of gestation). Guinea pigs in group #3 were injected with gentamicin (100 mg/kg once daily from days 51 to 57 of gestation). […] Newborn mortality was defined as either stillborn or death within the first 48 hrs of life.
We investigated the hearing condition and cochlear integrity in the guinea pigs from the five experimental groups described in the above paragraph. Typical ABR recordings from newborn guinea pigs are shown in FIG. 4, while FIG. 5 describes the statistical results. […] Gentamicin (group #3), in contrast, induced a significant increase in hearing threshold in respect to saline (group #2) in mothers (49±3 dB vs. 28±2; P≦0.01) and newborns (38±2 vs. 29±1; P≦0.01).

[9] = tested on: guinea pigs (mothers and newborns); assay: Noise-induced hearing loss (ABR) and cochlear damage; type: in vivo, guinea pig
Protocol: (§2) In order to evaluate noise-induced neonatal mortality and the potential impact of prenatal LCAR supplementation, six pregnant guinea pigs were divided into three groups of two animals each. Pregnant guinea pigs in groups #1 and #2 were exposed 4 hours a day during 4 consecutive days to broadband noise (100 Hz-10 kHz) at 95 SPL during days 50 to 53 of gestation. In addition, guinea pigs in group #2 received daily LCAR supplementation in their water supply (1 mg/ml˜100 mg/kg/day) from day 28 of gestation. […] Noise exposure was performed in a sound booth, with the animals in individual plastic cages placed on a wire shelf at ˜0.8 m above the floor. Since at this time of pregnancy guinea pigs spend most of the time resting with the abdomen in contact with the cage floor, the speakers were placed below the shelf, with the sound waves directed toward the cage's floor. Sound pressure levels were measured with a calibrated digital sound level meter (Radio Shack #33-2055) inside the plastic cages.
Noise-induced cochlear damage and changes in hearing threshold were evaluated in mothers and newborns (ten days after delivery) in the three groups described in the above paragraph. We found moderate threshold shifts (˜9 dB) in mothers exposed to noise (group #1). […] In newborns, we also observed a higher hearing threshold in noise-exposed animals than in those of the control group (36±2 dB group #1 and 30±1 dB group #2 vs. 22±1 dB group #3 control).
Similar damage, but concentrated in smaller regions, was present in cochleas from LCAR-supplemented animals.

[10] = humans, cited from earlier work
newborn guinea pigs [11] = assay: Noise-induced neonatal mortality; type: in vivo, guinea pig; settings: group #2: broadband noise 95 SPL 4 h/day, days 50-53 of gestation; LCAR 1 mg/ml in water from day 28
Protocol: as §2
The experimental protocol assume normal delivery after 59-62 days of pregnancy. In fact, control animals delivered at days 59 and 61, respectively. […] Neonatal mortality—expressed as the number of stillborn or newborn death within the first 48 hrs of life over the total number of animals delivered—was 77% in group #1 ( 7/9), 9% in group #2 ( 1/11), and 0% in group #3 (0/9).

HEI-OC1 cells [12] = assay: LCAR prevention of cisplatin- and gentamicin-induced apoptosis, colorimetric CaspACE assay; type: cell-based, mouse; settings: 48 hours pre-incubation with 2 mg/ml LCAR
Text: We further investigated whether LCAR was able to prevent cisplatin- and gentamicin-induced apoptosis in HEI-OC1 cells.

[13] = LCAR + Gentamicin = LCAR two weeks prior, Gentamicin + LCAR = simultaneous

CC(=O)O[C@H](CC(=O)[O-])C[N+](C)(C)C [ALCAR, acetyl-L-carnitine]
effect on noise-induced hearing loss [1]: attenuates noise-induced hearing loss

N.N.[Cl][Pt][Cl] [Cisplatin, cisplatin]
cisplatin-induced inner hair cell (IHC) damage ([2]; guinea pig, in vivo): no significant | loss of OHCs by cochlear turn ([2]; guinea pig, in vivo): significant loss of OHCs in the first and second turn of the cochlea | Total % (damaged/total OHCs) ([2]; mothers): 36.0 (297/824) % | damaged OHC (%) Row #1 ([2]; mothers): 39.6% | damaged OHC (%) Row #2 ([2]; mothers): 32.6% | damaged OHC (%) Row #3 ([2]; mothers): 35.9% | Total % (damaged/total OHCs) ([2]; newborns): 34.9 (443/1268) % | damaged OHC (%) Row #1 ([2]; newborns): 50.2% | damaged OHC (%) Row #2 ([2]; newborns): 37.9% | damaged OHC (%) Row #3 ([2]; newborns): 16.9% | average ABR hearing threshold [3]: 46±4 dB | incubation time after which DNA laddering was visible (HEI-OC1 cells [4]; 100 μM cisplatin, periods 6 hours to 24 hours): 18 h | cisplatin concentration at which apoptosis (laddering pattern) was first detected (HEI-OC1 cells [4]; 24 hours incubation, doses 25 μM to 500 μM): 100 µM | caspase-9 activity (HEI-OC1 cells [5]; 12-hour incubation with 100 μM cisplatin): increased about five-fold | caspase-8 activity (HEI-OC1 cells [5]; cisplatin-treated HEI-OC1 cells): little change in activity

C[N+](C)(C)C[C@H](O)CC(=O)[O-] [LCAR, L-carnitine]
effect on gentamicin-induced OHC death ([6]; LCAR prior vs simultaneous): significantly prevented only in animals supplemented with LCAR two weeks prior gentamicin treatment | effect on gentamicin-induced stereocilia disruption ([6]; LCAR provided either prior or simultaneously with gentamicin): inhibit gentamicin-induced stereocilia disruption | effect of LCAR supplementation on cisplatin-induced OHC damage ([2]; mothers and newborns): attenuates this cisplatin-induced OHC damage | neonatal mortality (stillborn or death within first 48 hrs) (newborn guinea pigs [7]; group #4: gentamicin plus LCAR 1 mg/ml in water starting 2 weeks prior): 15% | neonatal mortality (stillborn or death within first 48 hrs) (newborn guinea pigs [7]; group #5: gentamicin plus LCAR 1 mg/ml in water starting simultaneously): 9% | effect of LCAR supplementation on gentamicin ototoxicity (ABR) ([8]; LCAR from 28 days of pregnancy (group #4) or coincidental with gentamicin (group #5)): attenuates the ototoxic effects of gentamicin in both mothers and pups | noise-induced cochlear damage (microscopy) ([9]; LCAR-supplemented noise-exposed animals): significant decrease in cochlear damage | hearing threshold shift in noise-exposed mothers ([9]; mothers, LCAR supplemented, ten days after delivery): no changes were observed | hearing threshold in newborns ([9]; newborns, group #2 noise + LCAR, ten days after delivery): 30±1 dB | dietary LCAR absorbed ([10]; dietary): 54-87% | LCAR filtered by the kidney that is reabsorbed [10]: 90-98% | neonatal mortality (stillborn or death within first 48 hrs) (newborn guinea pigs [11]): 9% | gentamicin-induced cell apoptosis (caspase-3, CaspACE) (HEI-OC1 cells [12]; then 24 hours 50 μM gentamicin): significantly inhibited | cisplatin-induced cell apoptosis (caspase-3, CaspACE) (HEI-OC1 cells [12]; then 24 hours 200 μM cisplatin): significantly inhibited

gentamicin
OHC death, OHCs % Row #1 [6, 13]: 0.6* % | OHC death, OHCs % Row #2 [6, 13]: 0.9** % | OHC death, OHCs % Row #3 [6, 13]: 0.8** % | OHC death, Total % [6, 13]: 0.7** % | neonatal mortality (stillborn or death within first 48 hrs) (newborn guinea pigs [7]; group #3: gentamicin 100 mg/kg once daily, days 51 to 57 of gestation): 54% | ABR hearing threshold, mothers ([8]; mothers, group #3 gentamicin 100 mg/kg daily, days 51-57 of gestation): 49±3 dB | ABR hearing threshold, newborns ([8]; newborns, group #3 gentamicin given to pregnant mothers): 38±2 dB
